The text below walks through data of ChEMBL document CHEMBL4321832 (J Med Chem, 2019).

A short description of data set [1]: Lipophilicity, logP of compound. It counts as physicochemical. To be noted: octanol/water.
In data set [2] the test system is A549. Nature of the data set: Antiproliferative activity against human A549 cells assessed as reduction in cell viability incubated for 24 hrs by BrdU based ELISA. It counts as functional. The conditions noted are these: A549, 24 h.
Data set [3] relates to MCF7. Nature of the data set: Antiproliferative activity against human MCF7 cells assessed as reduction in cell viability incubated for 24 hrs by BrdU based ELISA. It counts as functional. To be noted: MCF7, 24 h.
Data set [4] has as its system MDA-MB-436. Nature of the data set: Antiproliferative activity against human MDA-MB-436 cells assessed as reduction in cell viability incubated for 24 hrs by BrdU based ELISA. It counts as functional. To be noted: MDA-MB-436, 24 h.
The test system of data set [5] is A-431. Nature of the data set: Antiproliferative activity against human A431 cells assessed as reduction in cell viability incubated for 24 hrs by BrdU based ELISA. The class given is functional. The conditions noted are these: A-431, 24 h.
Data set [6] has as its target T1, Lanosterol 14-alpha demethylase (Homo sapiens, UniProt Q16850).
T1 sequence (Q16850 whole entry): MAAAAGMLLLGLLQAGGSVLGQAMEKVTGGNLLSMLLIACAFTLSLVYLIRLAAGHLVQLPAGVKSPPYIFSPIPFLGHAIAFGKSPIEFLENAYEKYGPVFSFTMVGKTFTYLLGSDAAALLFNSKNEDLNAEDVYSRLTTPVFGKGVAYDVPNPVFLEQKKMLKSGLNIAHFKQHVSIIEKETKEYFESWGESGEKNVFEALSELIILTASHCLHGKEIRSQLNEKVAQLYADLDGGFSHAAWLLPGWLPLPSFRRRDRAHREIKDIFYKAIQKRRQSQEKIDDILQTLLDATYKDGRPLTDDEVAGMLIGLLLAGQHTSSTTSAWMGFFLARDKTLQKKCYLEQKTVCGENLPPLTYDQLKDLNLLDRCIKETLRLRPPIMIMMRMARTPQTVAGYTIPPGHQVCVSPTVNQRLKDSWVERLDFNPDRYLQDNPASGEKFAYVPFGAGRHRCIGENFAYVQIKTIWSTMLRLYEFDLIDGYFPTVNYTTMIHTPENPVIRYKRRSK
Nature of the data set: Binding affinity to recombinant full length human CYP51 expressed in Escherichia coli incubated for 30 sec using [3H] labelled substrate by HPLC analysis.

Data set [7] has as its target T1, Lanosterol 14-alpha demethylase. The data set is described as follows: Inhibition of recombinant full length human CYP51 expressed in Escherichia coli incubated for 1 min using [3H] lanosterol as substrate by HPLC analysis.
For data set [8], the target named is T2, CYP51 (lanosterol 14-alpha demethylase) (Homo sapiens, UniProt Q16850).
T2 sequence (Q16850 whole entry): T1 sequence (Q16850 whole entry)
The data set is described as follows: Inhibition of recombinant full length human CYP51 expressed in Escherichia coli at inhibitor/enzyme ratio 50/1 incubated for 1 hr using [3H] lanosterol as substrate by HPLC analysis relative to control. Set-up: concentration or dose not given beside the values. To be noted: probe [3H] lanosterol.

Data set [9] addresses T2, CYP51 (lanosterol 14-alpha demethylase). The data set is described as follows: Inhibition of recombinant full length human CYP51 expressed in Escherichia coli at inhibitor/enzyme ratio 25/1 incubated for 1 hr using [3H] lanosterol as substrate by HPLC analysis relative to control. The conditions noted are these: probe [3H] lanosterol.
Data set [10] addresses T1, Lanosterol 14-alpha demethylase. The data set is described as follows: Inhibition of recombinant full length human CYP51 expressed in Escherichia coli incubated for 1 hr using [3H] lanosterol as substrate by HPLC analysis.
Data set [11] is described as follows: Inhibition of human CYP51 T314I mutant expressed in Escherichia coli incubated for 1 hr using [3H] lanosterol as substrate by HPLC analysis.

pEC50, pIC50, pKd: −log10 of the molar value.

As for `O=C(N[C@@H](Cn1ccnc1)c1ccc(-c2ccc(F)cc2)cc1F)c1ccc(-c2nnc(-c3ccccc3)o2)cc1`, in data set [1] (read-out: logP), the logP is 5.4. Besides, the pEC50 in [2], in data set [3], in [4] and in data set [5] was 4.52 to 5.00 throughout. In addition, in [6], the pKd was 7.05. In addition, the pIC50 in data set [7] was above 6.30; in [10], 4.61. The results for the inhibition at 1 h in data set [8] and in data set [9] were 64% and 33%, respectively.

`O=C(N[C@@H](Cn1ccnc1)c1ccc(-c2ccc(F)cc2)cc1Cl)c1ccc(-c2nnc(-c3ccccc3)o2)cc1` had a logP in data set [1] of 6.9. In addition, the pIC50 in data set [7] was above 6.30; in [10], 5.23; in data set [11] it was 5.68. The results for the inhibition at 1 h in data set [8] and in data set [9] were 91% and 73%, respectively.

For the molecule `O=C(N[C@@H](Cn1ccnc1)c1ccc(-c2ccc(F)cc2)cc1Cl)c1ccc(-c2nnc(-c3cc(F)cc(-c4ccccn4)c3)o2)cc1`, the logP in data set [1] (read-out: logP) was found to be 6.8. For the same molecule, in data set [6], the pKd is 6.82. The results for the pIC50 in data set [7] and in data set [10] were above 6.30 and above 6.00, respectively. For the same molecule, the inhibition at 1 h in data set [8] is 96%; in data set [9], 95%.

On to `CS(=O)(=O)c1cc(Br)cc(-c2nnc(-c3ccc(C(=O)N[C@@H](Cn4ccnc4)c4ccc(-c5ccc(F)cc5)cc4Cl)cc3)o2)c1`, for which, in data set [1] (read-out: logP), the logP is 5.4. Moreover, the pKd in [6] was 6.89. Besides, the pIC50 in data set [7] is above 6.30; in [10], 5.44. Also, the inhibition at 1 h is 89% in data set [8] and 82% in data set [9].

As to `O=C(N[C@@H](Cn1ccnc1)c1ccc(-c2ccc(F)cc2)cc1Cl)c1ccc(-c2nnc(-c3cc(Br)cc4ccccc34)o2)cc1`, the logP in [1] (read-out: logP) is 7.7. In addition, the pKd in data set [6] is 6.33. The pIC50 in data set [7] is above 6.30; in data set [10], 4.82. The inhibition at 1 h in data set [8] was 73%; in data set [9], 25%.

Take `O=C(N[C@@H](Cn1ccnc1)c1ccc(-c2ccc(F)cc2)cc1-c1ccco1)c1ccc(-c2nnc(-c3ccccc3)o2)cc1`: the logP in data set [1] (read-out: logP) came out at 5.8. For the same molecule, the pIC50 is 5.28 in data set [7] and below 4.60 in data set [10]. Moreover, the inhibition at 1 h in data set [8] stood at 8%; in data set [9], 0%.

`O=C(N[C@@H](Cn1ccnc1)c1ccc(-c2ccc(F)cc2)cc1-c1ccccc1)c1ccc(-c2nnc(-c3ccccc3)o2)cc1`: the logP in data set [1] (read-out: logP) came to 5.3. Also, the figures for the pIC50 in data set [7] and in data set [10] were 5.82 and below 4.60, respectively. The inhibition at 1 h was 41% in [8] and 0% in data set [9].

In the case of `CS(=O)(=O)c1cc(-c2ccccn2)cc(-c2nnc(-c3ccc(C(=O)N[C@@H](Cn4ccnc4)c4ccc(-c5ccc(F)cc5)cc4Cl)cc3)o2)c1`, the logP in data set [1] (read-out: logP) is 5.3. The pKd in data set [6] is 7.70. In addition, the pIC50 in [7] is above 6.30; in data set [10], 5.36. In addition, the results for the inhibition at 1 h in data set [8] and in [9] were 90% and 82%, respectively.

With `O=C(N[C@@H](Cn1ccnc1)c1ccc(-c2ccc(F)cc2)cc1Cl)c1ccc(-c2nnc(-c3cc(-c4ccccn4)ccc3F)o2)cc1`, the logP in data set [1] (read-out: logP) amounted to 6.8. In addition, in data set [8], the inhibition at 1 h is 93%.

For `COc1ccc(-c2cc(-c3ccc(F)cc3)ccc2[C@H](Cn2ccnc2)NC(=O)c2ccc(-c3nnc(-c4ccccc4)o3)cc2)cc1`, the logP in data set [1] (read-out: logP) was 5.8. In addition, the pIC50 in [7] was 4.92; in data set [10], below 4.60. Besides, the inhibition at 1 h in data set [8] and in data set [9] was 0% in each case.

`O=C(N[C@@H](Cn1ccnc1)c1ccc(-c2ccc(F)cc2)cc1Cl)c1ccc(-c2nnc(-c3cc(F)cc(-c4ncncc4F)c3)o2)cc1`: the logP in data set [1] (read-out: logP) was 6.3. The pKd in [6] was 7.05. The pIC50 in data set [7] is above 6.30; in data set [10] it was above 6.00. The inhibition at 1 h in data set [8] and in data set [9] was 98% throughout.

For the molecule `O=C(N[C@@H](Cn1ccnc1)c1ccc(-c2ccc(F)cc2)c2ccccc12)c1ccc(-c2nnc(-c3ccccc3)o2)cc1`, in data set [1] (read-out: logP), the logP came out at 5.8. The figures for the pIC50 in [7] and in [10] were 5.52 and below 4.60, respectively. Moreover, the inhibition at 1 h in [8] worked out at 1%; in data set [9], 0%.
